Laboratory results published in US5076973A, “Synthesis of dolastatin 3” (Arizona Board of Regents, priority 1988, dated 1991).

Assay: Stability in solution and in storage
Type: physicochemical

Which results are given for CC(C)C[C@@H]1NC(=O)[C@@H]2CCCN2C(=O)[C@H](C(C)C)NC(=O)c2csc(n2)CNC(=O)c2csc(n2)[C@H](CCC(N)=O)NC1=O [dolastatin 3, Cyclo-[L-Val-L-Pro-L-Leu-L-(gln)Thz-(gly)Thz]]?
Stability / decomposition in solution (in solution, especially in chloroform): tendency to undergo decomposition in solution; Stability in storage (storage of isolated natural sample): decomposed in storage
